Experimental data reported in PMC5940383, “SMAR1 inhibits Wnt/β-catenin signaling and prevents colorectal cancer progression” (Oncotarget, 2018).
Where a SMILES comes first, the peptide text is derived from it. Where no end group is shown, it is not given here. The star is where a group is joined. Cbz = O=C(OCc1ccccc1)*

B1: rh Wnt3a: recombinant human (rh) Wnt3a ligand (protein, UniProt P56704 19-352, looked up)
Protein Wnt-3a: SYPIWWSLAVGPQYSSLGSQPILCASIPGLVPKQLRFCRNYVEIMPSVAEGIKIGIQECQHQFRGRRWNCTTVHDSLAIFGPVLDKATRESAFVHAIASAGVAFAVTRSCAEGTAAICGCSSRHQGSPGKGWKWGGCSEDIEFGGMVSREFADARENRPDARSAMNRHNNEAGRQAIASHMHLKCKCHGLSGSCEVKTCWWSQPDFRAIGDFLKDKYDSASEMVVEKHRESRGWVETLRPRYTYFKVPTERDLVYYEASPNFCEPNPETGSFGTRDRTCNVSSHGIDGCDLLCCGRGHNARAERRREKCRCVFHWCCYVSCQECTRVYDVHTCK

Experiments:
[1] = tested on: SMAR1 expression in HCT116 cells and an array of CRC cell lines; experiment: Western blot / confocal: SMAR1 protein expression after peptide treatment; format: cell-based; conditions: Wnt3a CM or rh Wnt3a ligand (200 ng/mL), LiCl 30 mM for 6 hrs, MG132 10 μM with or without Wnt3a CM
Method: (§1) HCT116, SW480, SW620, HCT15 and HT29 cells (obtained from NCCS, Pune) were cultured in DMEM medium with 10% Fetal Bovine Serum (Gibco) and 100 Units of Penicillin Streptomycin antibiotics (Gibco). HCT116 stable cells were generated using GFP-SMAR1, GFP-control and GFP-sh-SMAR1 plasmids. si-HDAC5 plasmid was purchased from Santa Cruz Biotechnology. Conditioned medium were prepared using L cells and L-Wnt3a cells (kind gift from Jomon Joseph, NCCS Pune). After culturing for 7 days supernatant was collected and filtered through 0.22 micron syringe filter. Cells were treated with peptides (provided by Amrita Therapeutics) for 48 hours. Lipofectamine 2000 (Invitrogen) was used for transfection purposes.
(§2) Proteins were extracted using lysis buffer (50 mM Tris-Cl pH 7.5, 5 mM EDTA, 0.5% NP40, 50 mM NaF, 1 mM DTT, 0.2 mM sodium orthovanadate, 0.5 mM PMSF, 150 mM NaCl and 1X Protease Inhibitor cocktail). 40 μg proteins were transferred to PVDF membranes by Western blotting technique and blots were blocked with 5% BSA and incubated in primary antibodies. Blots were then incubated with HRP conjugated secondary antibodies and developed in X-ray films. For IP, proteins extracted were pre-cleared with Protein A/G beads (Invitrogen) and immunoprecipitated overnight with desired antibodies. Protein A/G beads were used to pull-down the protein-antibody complex and western blot was performed to check the interaction.
For confocal studies cells were fixed with 4% para-formaldehyde solution and permeabilized using 0.1% TritonX-100 solution. Cells were incubated with 1:250 dilution SMAR1 (Bethyl) antibody for 2 hours and later with 1:250 dilution Cy3 (Life Technologies) antibody for 1 hour. Coverslips containing cells were mounted using DAPI containing mounting medium (Fluoroshield with DAPI, Sigma). Human colon paraffinized tissue sections were de-paraffinized by heating in a microwave oven and later washed with xylene and alcohol. Antigen retrieval was performed and washed with PBS for further staining with 1:250 SMAR1 (Bethyl) and 1:250 β-catenin (BD Bioscience) antibodies. […]

HCT116 cells = conditions: 48 h
[2] = NOD-SCID mice, 25 mg/kg body weight intra-peritoneally on alternate days for 21 days, throughout the course of treatment
[3] = tested on: β-catenin expression in HCT116 cells; experiment: Western blot: β-catenin expression; format: cell-based; conditions: Wnt3a CM or rh Wnt3a ligand (200 ng/mL)
Method: as §1
as §2, with “Protein A/G beads were used to pull-down the protein-antibody complex and western blot was performed to check the interaction.” left out

[4] = tested on: β-catenin promoter in HCT116 cells; experiment: ChIP: occupancy of SMAR1, HDAC5 and H3K9 Ac at β-catenin promoter; format: cell-based; conditions: Wnt3a CM stimulation, mean ± SD, n = 3
Method: HCT116 cells were transfected with GFP-control, GFP-SMAR1, GFP-sh-SMAR1 or HDAC5 siRNA plasmids. ChIP was performed using Millipore reagents supplied according to the manufacturer's protocol. The protein-DNA complex were immunoprecipitated overnight at 4° C using SMAR1 (Bethyl), HDAC5 (Cell Signaling), H3K9Ac (Cell Signaling) or IgG (Santa Cruz Biotechnology) antibodies (1 μg each). PCR was performed with the primers flanking the binding sites of SMAR1 in β-catenin promoter. […]. The PCR conditions were 95° C for 1 minute, 55° C for 1 minute and 72° C for 1 minute for 35 cycles. The PCR amplicons obtained were run in 1% Agarose (Sigma) gel and documented.

[5] = tested on: β-catenin promoter (pEGFP1-β-catenin) in HCT116 cells; experiment: Flow cytometry of pEGFP1-β-catenin GFP expression; format: cell-based; conditions: pEGFP1-β-catenin transfected HCT116 cells, 200 ng/mL rh Wnt3a ligand; n = 3, SD
Excerpt: Genomic DNA was isolated from HCT116 cells and amplified with primers flanking binding sites of SMAR1 in β-catenin promoter. […]. The amplicon was ligated into pEGFP1 vector using T4 DNA ligase (NEB) after restriction digestion with XhoI and KpnI enzymes (NEB). Plasmids were transformed into DH5α E. coli competent cells and positive clones were identified after restriction digestion with XhoI and KpnI. The cloned β-catenin promoter was christened as pEGFP1-β-catenin.
HCT116 cells were co-transfected with FLAG-SMAR1 and pEGFP1-β-catenin plasmids or treated with rh Wnt3a ligand after transfection with pEGFP1-β-catenin. For flow cytometry analysis HCT116 cells were trypsinized using Trypsin-EDTA (Gibco) and washed thrice with PBS buffer. Cells were then passed through cell strainer (BD Falcon) and collected in flow cytometry tubes. GFP expressions were quantitated by subjecting 1 × 10^4 cells to BD FACSCalibur flow cytometry. FL1 channel was used to sort and quantify the GFP cells. Using CellQuest Pro software the histogram plots were derived and the GFP percentages were calculated. The graphs corresponding to the GFP percentage were generated using SigmaPlot software.

| Molecule | SMAR1 protein level after treatment [1] | IC50 value (MTT assay) (HCT116 cells) [µg/mL] | adverse effects [2] | other results |
| --- | --- | --- | --- | --- |
| [Cl-].[Li+] [LiCl] | failed to downregulate SMAR1 |  |  |  |
| CC(C)C[C@@H](C=O)NC(=O)[C@H](CC(C)C)NC(=O)[C@H](CC(C)C)NC(=O)OCc1ccccc1 [MG132] (Cbz-Leu-Leu-Leu-aldehyde) | SMAR1 protein stability was observed |  |  |  |
| ATATVNAIRGSVTPAVSQFN [AT-01C] |  | 10 | no observable adverse effects |  |
| NAIRGSVTPAVSQFN [AT-01D] |  | 9.90 | no observable adverse effects |  |
| Wnt3a | significant downregulation of SMAR1 |  |  | β-catenin levels after Wnt3a stimulation [3]: concomitant rise in the β-catenin levels; increased H3K9 Ac occupancy in β-catenin promoter [4]: 4.72 fold; reduced occupancy of HDAC5 in β-catenin promoter [4]: 4.77 fold; reduced occupancy of SMAR1 in β-catenin promoter [4]: 4.54 fold |
| B1 |  |  |  | increase in GFP expression (β-catenin promoter activity) [5]: about 45% |
